In patent publication US20060264460A1 (Wyeth, priority 2005, published 2006):
One block for each compound: values may come before it.

Target: T1, human Cot/Tpl2 kinase (Homo sapiens, UniProt P41279)
T1 construct: human Cot/Tpl2 kinase construct encoding residues 30-398; 6His (N); made in house; host or cells: Sf9 insect cells, baculovirus system (BD Biosciences)
Assay: Tpl2/Cot kinase assay: GST-MEK1 phosphorylation detected by ELISA (DELFIA Eu)
Assay type: biochemical
Protocol: Sf9 cells expressing the kinase were lysed in 50 mM NaPhosphate pH=8; 300 mM NaCl; 5 mM imidazole; 0.1 mM EGTA; 25 mM beta-glycerophosphate; 1% TX-100, 1% glycerol; 6 mM beta-mercaptoethanol and protease inhibitors. The lysate was clarified by centrifugation and was loaded onto a Ni-Sepharose column. The column was washed with 50 mM NaPhosphate pH=8; 300 mM NaCl; 15 mM imidazole; 1% glycerol; and 6 mM beta-mercaptoethanol. His-Tpl2 was eluted with 50 mM NaPhosphate pH=8; 300 mM NaCl; 250 mM imidazole; 1% glycerol; and 6 mM beta-mercaptoethanol. The eluted protein was further purified by size exclusion chromatography. Fractions corresponding to monomeric Tpl2 were then used in the assay.
Tpl2/Cot activity was directly assayed using GST-MEK1 as a substrate. GST-MEK1 phosphorylation on serine residues 217 and 221 was detected by ELISA. 0.4 nM Tpl2 was incubated with 35 nM GST-MEK1 in a kinase reaction buffer containing 20 mM MOPS pH=7.2; 50 uM ATP; 20 mM MgCl2; 1 mM DTT; 25 mM β-glycerophosphate; 5 mM EGTA; and 1 mM sodium orthovanadate for 1 h at 30° C. The compounds of the inventions solubilized in 100% DMSO were pre-diluted in assay buffer so that the final concentration of DMSO in the reaction was 1%. The kinase reaction was carried out in 100 ul volume on 96 well plates. The kinase reaction was then stopped with the addition of 100 mM EDTA. […] After a 1 hour incubation at room temperature, the detection plate was washed 4 times with TBST (TBS+0.05% Tween 20) and then incubated for another hour at room temperature with anti phospho-MEK1 antibody (Cell Signaling) 1:1000 in 10 mM MOPS 7.5; 150 mM NaCl; 0.05% Tween 20; 0.1% Gelatin; 0.02% NaN3; and 1% BSA. The detection plate was washed again and incubated for 30 min with DELFIA Europium (Eu) labeled goat anti-rabbit IgG (Perkin-Elmer), 1:4000 in the same buffer used for the primary incubation. After a final wash, Eu detection solution was added to each well and the Eu signal was measured in a Wallac Victor^2 Multilabel Counter. IC50 calculations were performed using the XLfit software package (IDBS, Guildford, UK).

[1] = Tpl2/Cot kinase, GST-MEK1 substrate, 50 uM ATP
[2] = Table 2, Tpl2/Cot kinase, GST-MEK1 substrate, 50 uM ATP
[3] = Tpl2/Cot kinase, GST-MEK1 substrate, 50 uM ATP, 1 h at 30° C., Table 2
[4] = 0.4 nM Tpl2, 35 nM GST-MEK1, 50 uM ATP, 1 h at 30° C.

T1 sequence (P41279 30-398): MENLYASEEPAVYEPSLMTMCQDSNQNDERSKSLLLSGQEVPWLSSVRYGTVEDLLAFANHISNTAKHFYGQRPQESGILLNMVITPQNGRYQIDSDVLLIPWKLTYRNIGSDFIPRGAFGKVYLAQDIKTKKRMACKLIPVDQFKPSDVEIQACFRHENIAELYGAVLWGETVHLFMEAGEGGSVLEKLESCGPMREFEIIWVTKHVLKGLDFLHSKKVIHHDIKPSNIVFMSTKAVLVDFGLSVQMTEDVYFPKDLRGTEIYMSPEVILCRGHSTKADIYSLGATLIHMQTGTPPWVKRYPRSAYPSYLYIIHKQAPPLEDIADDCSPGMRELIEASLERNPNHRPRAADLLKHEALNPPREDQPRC

IC50 [1]: 29 nM
Compound: CNCCn1cc(CNc2cc(Cl)c3ncc(C#N)c(Nc4ccc(F)c(Cl)c4)c3c2)nn1 [Example 685]

IC50 [3]: 130 nM
Compound: N#Cc1cnc2c(Cl)cc(NCc3cn(CCc4cncc(C(O)(C(F)(F)F)C(F)(F)F)c4)nn3)cc2c1Nc1ccc(F)c(Cl)c1 [Example 1042]

IC50 [1]: 62 nM
Compound: COCCCc1nc[nH]c1CNc1cc(Br)c2ncc(C#N)c(Nc3ccc(F)c(Cl)c3)c2c1 [Example 683]

IC50 [1]: 70 nM
Compound: CN1CCCN(CCCn2cc(CNc3cc(Br)c4ncc(C#N)c(Nc5ccc(F)c(Cl)c5)c4c3)nn2)CC1 [Example 793]

IC50 [1]: 11 nM
Compound: Cc1cc(Cn2cc(CNc3cc(Cl)c4ncc(C#N)c(Nc5ccc(F)c(Cl)c5)c4c3)nn2)ccn1 [Example 837]

IC50 [3]: 450 nM
Compound: N#Cc1cnc2c(Cl)cc(NCc3cncc(C4(O)CCOCC4)c3)cc2c1Nc1ccc(F)c(Cl)c1 [Example 1048]

IC50 [1]: 1960 nM
Compound: N#Cc1cnc2c(Cl)cc(NCCNS(=O)(=O)c3ccccc3)cc2c1Nc1ccc(F)c(Cl)c1 [Example 854]

IC50 [3]: > 3000 nM
Compound: CC(C)(C)OC(=O)N1CCC(n2cc(CNc3cc(Cl)c4ncc(C#N)c(NC5CCC6(CCCCC6)CC5)c4c3)nn2)CC1 [Example 973]

IC50 [1]: 530 nM
Compound: N#Cc1cnc2c(Cl)cc(NCC(=O)NCCN3CCOCC3)cc2c1Nc1ccc(F)c(Cl)c1 [Example 777]

IC50 [3]: 31 nM
Compound: N#Cc1cnc2c(Cl)cc(NCc3cn(C4CCN(C(=O)OCCF)CC4)nn3)cc2c1Nc1ccc(F)c(Cl)c1 [Example 982]

IC50 [2]: 57 nM
Compound: CC(C)N1CCC(CCn2cc(CNc3cc(Br)c4ncc(C#N)c(Nc5ccc(F)c(Cl)c5)c4c3)nn2)CC1 [Example 569]

IC50 [1]: 320 nM
Compound: CC(C)(C)OC(=O)N1CCCC1Cn1cc(CNc2cc(Cl)c3ncc(C#N)c(Nc4ccc(F)c(Cl)c4)c3c2)nn1 (stereo not drawn) [Example 716]

IC50 [2]: 530 nM
Compound: N#Cc1cnc2c(Cl)cc(NCC(=O)NCCN3CCOCC3)cc2c1Nc1ccc(F)c(Cl)c1 [Example 608]

IC50 [3]: > 3000 nM
Compound: CC(C)(C)OC(=O)N1CCN(CCn2cc(CNc3cc(Cl)c4ncc(C#N)c(Nc5ccc(F)c(Cl)c5)c4c3)nn2)CC1 [Example 957]

IC50 [1]: 6.9 nM
Compound: CN1CCCC1CCNC(=O)Cn1cc(CNc2cc(Cl)c3ncc(C#N)c(Nc4ccc(F)c(Cl)c4)c3c2)nn1 (stereo not drawn) [Example 651]

IC50 [3]: > 3000 nM
Compound: CC(C)(C)OC(=O)N1CCC(n2cc(CNc3cc(Cl)c4ncc(C#N)c(NC5CCCC5)c4c3)nn2)CC1 [Example 943]

The next lines start with the compound.

Compound: CC(C)N1CCC(Nc2ccc3ncc(C#N)c(Nc4ccc(F)c(Cl)c4)c3c2)CC1 [Example 366]
IC50 [2]: 25500 nM

Compound: COCCn1cc(CNc2cc(Cl)c3ncc(C#N)c(Nc4ccc(F)c(Cl)c4)c3c2)nn1 [Example 562]
IC50 [2]: 20 nM

Compound: Cc1ncc(CNc2cc(Br)c3ncc(C#N)c(Nc4ccc(F)c(Cl)c4)c3c2)[nH]1 [Example 105, 8-bromo-4-(3-chloro-4-fluorophenylamino)-6-((2-methyl-1H-imidazol-5-yl)methylamino)quinoline-3-carbonitrile]
IC50 [4]: 170 nM

Compound: N#Cc1cnc2c(Cl)cc(NCc3cn4ccccc4n3)cc2c1Nc1ccc(F)c(Cl)c1 [Example 187, 6-((H-imidazo[1,2-a]pyridin-2-yl)methylamino)-8-chloro-4-(3-chloro-4-fluorophenylamino)quinoline-3-carbonitrile]
IC50 [4]: 130 nM

Compound: Cc1c(CNc2ccc3ncc(C#N)c(Nc4ccc(F)c(Cl)c4)c3c2)ncn1CCN1CCOCC1 [Example 129, 4-(3-chloro-4-fluorophenylamino)-6-((5-methyl-1-(2-morpholinoethyl)-1H-imidazol-4-yl)methylamino)quinoline-3-carbonitrile]
IC50 [4]: 14 nM

Compound: Cc1ncn(CCN2CCOCC2)c1CNc1ccc2ncc(C#N)c(Nc3ccc(F)c(Cl)c3)c2c1 [Example 130, 4-(3-chloro-4-fluorophenylamino)-6-((4-methyl-1-(2-morpholinoethyl)-1H-imidazol-5-yl)methylamino)quinoline-3-carbonitrile]
IC50 [4]: 260 nM

Compound: Cn1cc(CNc2cc(Cl)c3ncc(C#N)c(Nc4ccc(F)c(Cl)c4)c3c2)nn1 [Example 217, 8-chloro-4-[(3-chloro-4-fluorophenyl)amino]-6-{[(1-methyl-1H-1,2,3-triazol-4-yl)methyl]amino}quinoline-3-carbonitrile]
IC50 [4]: 7.2 nM

Compound: N#Cc1cnc2ccc(NCc3cccc(OC(F)(F)F)c3)cc2c1Nc1ccc(F)c(Cl)c1 [Example 148, 6-(3-(trifluoromethoxy)benzylamino)-4-(3-chloro-4-fluorophenylamino)quinoline-3-carbonitrile]
IC50 [4]: 2200 nM

Compound: COc1ncc(CNc2cc(C(F)(F)F)c3ncc(C#N)c(Nc4ccc(F)c(Cl)c4)c3c2)c(OC)n1 [Example 241]
IC50 [4]: > 40000 nM

Compound: N#Cc1ccc(CNc2cc(C(F)(F)F)c3ncc(C#N)c(Nc4ccc(F)c(Cl)c4)c3c2)cc1 [Example 234, 4-[(3-chloro-4-fluorophenyl)amino]-6-[(4-cyanobenzyl)amino]-8-(trifluoromethyl)quinoline-3-carbonitrile]
IC50 [4]: 15100 nM

Compound: CCN1CCCC(n2cc(CNc3cc(Cl)c4ncc(C#N)c(Nc5ccc(F)c(Cl)c5)c4c3)nn2)CC1 (stereo not drawn) [Example 330, 8-chloro-4-[(3-chloro-4-fluorophenyl)amino]-6-({[1-(1-ethylazepan-4-yl)-1H-1,2,3-triazol-4-yl]methyl}amino)quinoline-3-carbonitrile]
IC50 [4]: 8.5 nM

Compound: N#Cc1cnc2c(Br)cc(NCc3cccnc3)cc2c1Nc1ccc(F)c(Cl)c1 [Example 77, 8-bromo-4-(3-chloro-4-fluorophenylamino)-6-(pyridin-3-ylmethylamino) quinoline-3-carbonitrile]
IC50 [4]: 110 nM

Compound: CN(C)C(=O)c1cc(NCc2cccc(C#N)c2)cc2c(Nc3ccc(F)c(Cl)c3)c(C#N)cnc12 [Example 85, 4-(3-chloro-4-fluorophenylamino)-3-cyano-6-(3-cyanobenzylamino)-N,N-dimethylquinoline-8-carboxamide]
IC50 [4]: 670 nM

Compound: N#Cc1cnc2c(Br)cc(NCc3cn(CC(F)(F)F)nn3)cc2c1Nc1ccc(F)c(Cl)c1 [Example 498]
IC50 [2]: 100 nM

Compound: N#Cc1cnc2c(Cl)cc(NCc3cncn3CCN3CCOCC3)cc2c1Nc1ccc(F)c(Cl)c1 [Example 489]
IC50 [2]: 62 nM

Compound: CCOCCOc1ccc(Br)c(CNc2ccc3ncc(C#N)c(Nc4ccc(F)c(Cl)c4)c3c2)c1 [Example 58, 6-[2-Bromo-5-(2-ethoxy-ethoxy)-benzylamino]-4-(3-chloro-4-fluoro-phenylamino)-quinoline-3-carbonitrile]
IC50 [4]: 1100 nM

Compound: CN(C)c1ccc(CNc2ccc3ncc(C#N)c(Nc4ccc(F)c(Cl)c4)c3c2)c(F)c1C#N [Example 20, 4-(3-Chloro-4-fluoro-phenylamino)-6-(3-cyano-4-dimethylamino-2-fluoro-benzylamino)-quinoline-3-carbonitrile]
IC50 [4]: 610 nM

Compound: Cn1cc(Cl)c(CNc2ccc3ncc(C#N)c(Nc4ccc(F)c(Cl)c4)c3c2)n1 [Example 389]
IC50 [2]: > 40000 nM

Compound: Cc1cc2ncc(C#N)c(Nc3ccc(F)c(Cl)c3)c2cc1N [Example 392]
IC50 [2]: > 40000 nM

Compound: N#Cc1cnc2ccc(NCCN3CCOCC3)cc2c1Nc1ccc(Cc2ccccc2)cc1 [Example 391]
IC50 [2]: 26 nM

Compound: CC(C)(C)OC(=O)COc1ccc(CNc2ccc3ncc(C#N)c(Nc4ccc(F)c(Cl)c4)c3c2)cc1Br [Example 26, (2-Bromo-4-{[4-(3-chloro-4-fluoro-phenylamino)-3-cyano-quinolin-6-ylamino]-methyl}-phenoxy)-acetic acid tert-butyl ester]
IC50 [4]: > 40000 nM

Compound: CS(=O)(=O)c1ccc(CNc2ccc3ncc(C#N)c(Nc4ccc(F)c(Cl)c4)c3c2)cc1 [Example 50, 4-(3-Chloro-4-fluoro-phenylamino)-6-(4-methanesulfonyl-benzylamino)-quinoline-3-carbonitrile]
IC50 [4]: 200 nM

Compound: CC(C)(C)Nc1c(C#N)cnc2ccc(NCc3cccc[n+]3[O-])cc12 [Example 406]
IC50 [2]: 5400 nM

Compound: Cc1ncn(C)c1CNc1ccc2ncc(C#N)c(Nc3ccc(F)c(Cl)c3)c2c1 [Example 388]
IC50 [2]: 200 nM

Compound: Cc1noc(Nc2c(C#N)cnc3ccc(NCc4cnc[nH]4)cc23)c1C [Example 262, 4-[(3,4-dimethylisoxazol-5-yl)amino]-6-[(1H-imidazol-5-ylmethyl)amino]quinoline-3-carbonitrile]
IC50 [4]: 2200 nM

Compound: Cc1c(CNc2ccc3ncc(C#N)c(Nc4ccc(F)c(Cl)c4)c3c2)ncn1C [Example 128, 4-(3-chloro-4-fluorophenylamino)-6-((1,5-dimethyl-1H-imidazol-4-yl)methylamino)quinoline-3-carbonitrile]
IC50 [4]: 3.2 nM
